Where a name gives a salt, the structure may show the parent alone.
What was measured:
[1] = target: T1, mu opioid receptor (Mus musculus, UniProt P42866); test: radioligand binding, mu ligand [3H]-DAMGO, mouse brain membranes; conditions: selectivity ratio
T1 construct: Mouse brain membranes were prepared as described by Kosterlitz; from tissue; host or cells: mouse brain membranes
Procedure: (§1) The activity of the compounds of the present invention as selective delta ligands is determined in radioligand binding assays as described below.
(§2) Mouse brain membranes were prepared as described by Kosterlitz (Br. J. Pharmacol., 1981, 73, 939.). The binding of the preferential delta ligand [^3H]-[D-Ala^2,D-Leu^5]-enkephalin (DADLE) was evaluated at its KD concentration (1.3 nM) in presence of 40 nM of the unlabelled mu ligand [D-Ala^2, MePhe^4, Gly-ol^5]-enkephalin (DAMGO). The binding of the mu ligand [^3H]-DAMGO (Eur. J. Pharmacol., 1989, 166, 213) and of the kappa ligand [^3H]-U69593 (Excerpta Medica, 1990, 211) were carried out at 0.5 nM. The non-specific binding was determined in presence of naloxone (10 μM) for all tritiated ligands. Binding data were expressed as percentage of inhibition and fitted the following equation: f(x)=100·X/(IC50+X) where X are cold drug concentration values. The IC50 obtained were used to calculate the inhibitory constants (Ki) accordingly to the Cheng and Prusoff relation (Biochem. Pharmacol., 1973, 22, 3099).

[2] = target: T2, kappa opioid receptor (Mus musculus, UniProt P33534); test: radioligand binding, kappa ligand [3H]-U69593, mouse brain membranes; conditions: selectivity ratio
T2 construct: Mouse brain membranes were prepared as described by Kosterlitz; from tissue; host or cells: mouse brain membranes
T2 sequence (P33534 whole entry): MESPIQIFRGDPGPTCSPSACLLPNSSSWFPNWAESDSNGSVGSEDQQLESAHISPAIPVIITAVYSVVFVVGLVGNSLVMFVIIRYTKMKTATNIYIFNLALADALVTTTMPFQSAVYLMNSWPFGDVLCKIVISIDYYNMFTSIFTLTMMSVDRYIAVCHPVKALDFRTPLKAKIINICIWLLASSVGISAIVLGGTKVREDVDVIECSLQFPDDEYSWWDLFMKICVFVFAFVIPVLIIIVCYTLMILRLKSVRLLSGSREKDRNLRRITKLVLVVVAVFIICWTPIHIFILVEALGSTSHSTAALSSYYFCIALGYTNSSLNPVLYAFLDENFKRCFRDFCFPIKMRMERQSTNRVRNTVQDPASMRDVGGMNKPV
Procedure: as §1, §2

[3] = target: T3, delta receptor (Mus musculus, UniProt P32300); test: cAMP bioassay in NG108-15 cells (inhibition of forskolin-stimulated cAMP); format: cell-based
T3 construct: endogenous in cells; host or cells: NG108-15 cells
T3 sequence (P32300 whole entry): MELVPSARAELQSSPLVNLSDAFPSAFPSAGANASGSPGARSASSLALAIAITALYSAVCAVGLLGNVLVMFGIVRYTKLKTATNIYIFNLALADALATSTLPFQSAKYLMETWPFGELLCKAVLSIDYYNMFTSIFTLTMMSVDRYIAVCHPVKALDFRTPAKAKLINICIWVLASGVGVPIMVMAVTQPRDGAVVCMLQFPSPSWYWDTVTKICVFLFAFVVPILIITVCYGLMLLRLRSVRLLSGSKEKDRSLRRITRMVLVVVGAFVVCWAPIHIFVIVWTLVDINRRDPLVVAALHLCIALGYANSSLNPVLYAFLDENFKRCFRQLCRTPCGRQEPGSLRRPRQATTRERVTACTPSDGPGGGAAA
Procedure: The delta agonistlantagonist activity of the compounds of the present invention is determined in the cAMP bioassay in NG108-15 cell lines as described below.
NG 108-15 cell were grown at 37° C. in humidified atmosphere of 5% CO2 and 95% air in DMEM (without sodium pyruvate using 4500 mg/l glucose) supplemented with 10% foetal calf serum containing 2 mM glutamine, 2% HAT×50 supplement, 50 μg streptomycin and 50 I.U. penicillin per ml confluent cells were harvested with […] in Ca/Mg-free phosphate-buffered saline with mechanical stiring. Medium was replaced every 2 day. One day before the experiment the cells were dispensed in 17 mm culture plate (about 10×10^6 cells/plate). After 1 day, the growth medium was removed and cells washed twice with a modified Krebs-Ringer medium buffered with hepes-NaOH 200 mM, pH 7.4, that contained (mmol/l): NaCl (125), KCl (5), KH2PO4 (0.4), MgSO4 and CaCl2 (1.2) NaHCO3 (25), glucose (12). Incubation medium was also including 1 mM 3-isobuthyl-1-methylxantine (IBMX). Experiments were performed at room temperature. After incubation for 10 minutes to allow IBMX incorporation, NG108-15 cells were exposed to 1 μM forskolin and the compound to be tested, for 10 minutes. […] The pellets from the original plates were dissolved in NaOH 0.5N and the protein content was determined with the method described by Bradfort (Anal. Biochem. 1976, 72, 248). […]

T1 sequence (P42866 whole entry): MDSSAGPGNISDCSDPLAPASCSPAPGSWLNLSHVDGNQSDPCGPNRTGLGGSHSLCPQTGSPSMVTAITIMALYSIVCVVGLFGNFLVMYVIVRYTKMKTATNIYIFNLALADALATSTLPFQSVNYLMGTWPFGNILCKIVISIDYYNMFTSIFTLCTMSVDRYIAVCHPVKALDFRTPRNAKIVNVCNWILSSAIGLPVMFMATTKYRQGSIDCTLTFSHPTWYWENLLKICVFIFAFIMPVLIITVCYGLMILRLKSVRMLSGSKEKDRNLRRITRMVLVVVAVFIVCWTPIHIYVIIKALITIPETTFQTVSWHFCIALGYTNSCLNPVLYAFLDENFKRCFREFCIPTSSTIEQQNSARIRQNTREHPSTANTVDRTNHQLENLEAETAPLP

SMILES | Ki mu/Ki delta [1] | Ki kappa/Ki delta [2] | melting point [°C] | IC50 [3] [nM] | antagonism of the agonist activity by the selective delta antagonist naltrindole ([3]; NG108-15 cells, naltrindole 100 nM)
CCOC(=O)c1[nH]c2c(c1C(F)(F)F)C[C@H]1[C@H]3Cc4ccc(OC)c5c4[C@@]1(CCN3C)[C@H]2O5 [Example 10] | 840 | 600 | 174 | – | –
COc1ccc2c3c1O[C@H]1c4[nH]c(C(=O)N(Cc5ccccc5)C(C)C)c(C)c4C[C@H]4[C@@H](C2)N(C)CC[C@]314 [Example 1, [R-(4bS*,8α,s8aβp,12βp)]11(N-N-benzylN-isopropylaminocarbonyl)-7,10dimethyl-1-methoxy-5,6,7,8,12,12b-hexahydro-(9H){4,8methanobenzofuro[3,2]pyrrolo[2,3-g]soquinoline hydrochloride] | – | – | – | 15 | completely antagonised
